Assay results from patent US20240245787A1, “E3 LIGASE BINDERS AND USES THEREOF” (President and Fellows of Harvard College, priority 2021, published 2024).
Read-outs that look alike come from different tables or passages of the source. One block for each compound: values may come before it. No end group written: not given here.

What was measured:
MM.1S cells = assay: Cell viability (MTT) assay; assay type: cell-based; settings: Homo sapiens, MM1.S, 120 h, 5 d, read-out: IC50 (anti-proliferative effect)
Procedure: 2.0×10^4 MM.1S cells were seeded in each well of a 96-well plate containing 100 μL RPMI160 media supplemented with 10% FBS and 1× penicillin-streptomycin. The compound of interest was added to each well to a final concentration of 10 nM-100 μM from 100× stock solutions in 4% DMSO/PBS (1 μL). Samples were incubated at 37° C., 5% CO2 for 5 days. Each well was treated with 3-(4,5-Dimethylthiazol-2-yl)-2,5-diphenyltetrazolium (MTT, 4 mg/mL, 10 μL), and the treated plate was incubated at 37° C., 5% CO2 for 3 h. The formazan crystals were solubilized by the addition of 100 μL of 10% SDS, 0.01 M HCl per well, and the plate was allowed to incubate at 37° C. overnight. The absorbance at 570 nm was measured to quantify the formazan generated in each well. The blank was defined by wells containing media and MTT reagent without any cells. For each treatment well, the cell viability was calculated by subtracting the blank value and normalizing to the average absorbance of the vehicle control wells (cells treated with 4% DMSO/PBS).

FIG. 22C = assay: FIG. 22C
Description: Table printed on a drawing sheet, FIG. 22C
First reader's note: Per the description this is an in vitro permeability assay in Caco-2 cells; Boc-FcQ and Boc-FcN are Boc-protected dipeptide cyclic imides (cyclimids).

IKZF1 [1] = assay: Global quantitative proteomics of MM.1S cells; assay type: cell-based, human (Homo sapiens); settings: 10 μM, 10 h
[2] = molecular target: CRBN/DDB1 in the presence of BD2 domain of BRD4 (Homo sapiens, UniProt O60885+Q96SW2); assay: biochemical
Chain of CRBN/DDB1 in the presence of BD2 domain of BRD4 (Q96SW2 whole entry, looked up, other chains not shown, the tested form may be a part): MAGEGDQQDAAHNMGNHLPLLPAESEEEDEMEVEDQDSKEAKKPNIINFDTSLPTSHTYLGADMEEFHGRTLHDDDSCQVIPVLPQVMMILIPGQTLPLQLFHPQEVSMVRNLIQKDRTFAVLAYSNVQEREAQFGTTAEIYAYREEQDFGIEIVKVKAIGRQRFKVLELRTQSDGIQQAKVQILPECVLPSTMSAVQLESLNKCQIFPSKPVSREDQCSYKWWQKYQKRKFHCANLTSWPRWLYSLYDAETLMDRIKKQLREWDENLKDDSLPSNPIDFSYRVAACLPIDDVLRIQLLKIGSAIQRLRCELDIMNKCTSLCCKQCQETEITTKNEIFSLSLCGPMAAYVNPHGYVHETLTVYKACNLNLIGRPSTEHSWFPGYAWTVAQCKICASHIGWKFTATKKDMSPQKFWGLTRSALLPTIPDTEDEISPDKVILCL

BRD4 with FLAG-CRBN [3] = molecular target: T1, BRD4 with FLAG-CRBN (Homo sapiens, UniProt O60885+Q96SW2); assay: In vitro FLAG-tag co-immunoprecipitation in HEK-CRBN lysates; assay type: binding; settings: 1 μM, 2 h
[4] = test system: GST-BRD4 and His-CRBN/DDB1; assay: AlphaScreen for ternary complex formation; assay type: binding; settings: recombinant GST-BRD4 and His-CRBN/DDB1
Procedure: AlphaScreen buffer (3× stock solution: 150 mM HEPES pH 7.4, 600 mM NaCl, 0.3% w/v BSA, 3 mM TCEP) was prepared fresh for each experiment. A 3× stock solution of each compound (60 μM, 3% DMSO final/1× AlphaScreen buffer) and a series of 2-fold serial dilutions, in 3% DMSO/1× AlphaScreen buffer, were prepared fresh for each experiment. A solution of 750 nM His6-CRBN/DDB1, 375 nM GST-BRD4/1× AlphaScreen buffer (5 μL) was added to each well of a 384-well Optiplate. Then, compound (5 μL) was added, with each concentration assayed in triplicate. As a positive control, 10 μL 100 nM GST-His6 was added to three wells. The plate was sealed with TopSeal A, centrifuged (200× g, 25° C., 1 min), and incubated at 25° C. for 1 h. Under low light, the seal was removed and 5 μL of 60 μg/mL AlphaScreen Glutathione Donor beads, 60 μg/mL AlphaLISA Nickel Chelate […] beads/1× AlphaScreen buffer was added to each well. The plate was sealed with TopSeal A, centrifuged (200× g, 25° C., 1 min), and incubated at 25° C. for 1 h. The seal was removed and the plate was analyzed. Prior to analysis, the plate reader was calibrated with a plate containing 15 μL of 20 μg/mL Omnibeads/1× AlphaScreen buffer in the corner wells. Analysis was performed in Graphpad Prism, using the vehicle-treated wells as the baseline, fitting the signal from each compound to a Gaussian curve, and calculating the area under the curve (AUC).

BRD4 with FLAG-CRBN [5] = molecular target: T1, BRD4 with FLAG-CRBN; assay: In vivo FLAG-tag co-immunoprecipitation in HEK-CRBN cells; assay type: cell-based; settings: 25 μM, 2 h, 1 μM MLN4924
[6] = molecular target: CRBN/DDB1 in the presence of BD1 domain of BRD4 (Homo sapiens, UniProt O60885+Q96SW2); assay: biochemical
BRD4 = BRD4 (Homo sapiens, UniProt O60885)
IKZF1 [7] = assay: Western blot of IKZF1 levels in MM.1S cells; assay type: cell-based; settings: 10 μM
CRL4^CRBN complex = CRL4^CRBN complex (Homo sapiens, UniProt Q96SW2); assay: In vitro ubiquitylation of C-terminally tagged proteins; assay type: biochemical; settings: CRL4^CRBN complex isolated from HEK-CRBN cells, 30° C., 90 min
[8] = read-out: KD [ternary] (nM) | BD2
[9] = read-out: KD [ternary] (nM) | BD1

Compound: CC(C)(C)OC(=O)NC(Cc1ccccc1)C(=O)NC1CCC(=O)NC1=O (centres unmarked) [Boc-FcQ]
IC50 (MM.1S cells): > 100000 nM
Papp (B-A) (10^-6, cm/s) (FIG. 22C): 18.00 10^-6, cm/s
Recovery (%)BL-AP (FIG. 22C): 91.46%
additional substrates degraded (global proteomics) (IKZF1 [1]): no additional substrates were degraded
degradation of IKZF1 (global proteomics) (IKZF1 [1]): not susceptible to degradation

Kd [2, 8]: 76 nM
Compound: Cc1sc2c(c1C)C(c1ccc(Cl)cc1)=N[C@@H](CC(=O)NCCCCCCCCC(=O)N[C@@H](C)C(=O)N[C@H]1CCC(=O)NC1=O)c1nnc(C)n1-2 [JQ1-AcQ]

Compound: Cc1sc2c(c1C)C(c1ccc(Cl)cc1)=N[C@@H](CC(=O)NCCCCCCCCC(=O)N[C@@H](CC(=O)O)C(=O)N[C@H]1CCC(=O)NC1=O)c1nnc(C)n1-2 [JQ1-DcQ]
co-immunoprecipitation of BRD4 with FLAG-CRBN in lysates (BRD4 with FLAG-CRBN [3]): equivalent co-immunoprecipitation of BRD4 with FLAG-CRBN

Compound: Cc1sc2c(c1C)C(c1ccc(Cl)cc1)=N[C@@H](CC(=O)NCCCCCCCCC(=O)N[C@@H](CCC(=O)O)C(=O)N[C@H]1CCC(=O)NC1=O)c1nnc(C)n1-2 [JQ1-EcQ]
co-immunoprecipitation of BRD4 with FLAG-CRBN in lysates (BRD4 with FLAG-CRBN [3]): equivalent co-immunoprecipitation of BRD4 with FLAG-CRBN

co-immunoprecipitation of BRD4 by FLAG-CRBN in cells (BRD4 with FLAG-CRBN [5]): readily co-immunoprecipitated
Compound: Cc1sc2c(c1C)C(c1ccc(Cl)cc1)=N[C@@H](CC(=O)NCCCCCCCCC(=O)N[C@@H](Cc1ccccc1)C(=O)N[C@H]1CC(=O)NC1=O)c1nnc(C)n1-2 [JQ1-FcN]
ternary complex formation (AlphaScreen signal / relative area under the curve normalized to dBET6) [4]: stronger ternary complex than dBET6

co-immunoprecipitation of BRD4 by FLAG-CRBN in cells (BRD4 with FLAG-CRBN [5]): readily co-immunoprecipitated
Compound: Cc1sc2c(c1C)C(c1ccc(Cl)cc1)=N[C@@H](CC(=O)NCCCCCCCCC(=O)N[C@@H](Cc1ccccc1)C(=O)N[C@H]1CCC(=O)NC1=O)c1nnc(C)n1-2 [JQ1-FcQ]
ternary complex formation (AlphaScreen signal / relative area under the curve normalized to dBET6) [4]: stronger ternary complex than dBET6

Kd [6, 9]: 381 nM
Kd [2, 8]: 335 nM
Compound: Cc1sc2c(c1C)C(c1ccc(Cl)cc1)=N[C@@H](CC(=O)NCCCCCCCCC(=O)N1CCC[C@H]1C(=O)N[C@H]1CCC(=O)NC1=O)c1nnc(C)n1-2 [JQ1-PcQ]

Kd [6, 9]: 5 nM
Kd [2, 8]: 277 nM
Compound: Cc1sc2c(c1C)C(c1ccc(Cl)cc1)=N[C@@H](CC(=O)NCCCCCCCCC(=O)N[C@@H](Cc1ccc(O)cc1)C(=O)N[C@H]1CCC(=O)NC1=O)c1nnc(C)n1-2 [JQ1-YcQ]

Compound: Cc1sc2c(c1C)C(c1ccc(Cl)cc1)=N[C@@H](CC(=O)NCCCCCCCCC(=O)N[C@H]1CC(=O)NC1=O)c1nnc(C)n1-2 [JQ1-cN]
Kd [6]: 538 nM
Kd [2]: 390 nM

Compound: Cc1sc2c(c1C)C(c1ccc(Cl)cc1)=N[C@@H](CC(=O)NCCCCCCCCC(=O)N[C@H]1CCC(=O)NC1=O)c1nnc(C)n1-2 [JQ1-cQ]
Kd [6]: 245 nM
ternary complex formation (AlphaScreen signal / relative area under the curve normalized to dBET6) [4]: ternary complex formation equivalent to the active JQ1-GcQ
Kd [2]: 267 nM
degradation of BRD4 (functional degrader or not) (BRD4): inactive

Compound: Nc1cccc2c1CN(C1CCC(=O)NC1=O)C2=O (centres unmarked) [lenalidomide, Lenalidomide, reference compound]
IC50 (MM.1S cells): 31600 nM

Compound: Nc1cccc2c1CN(C1CCC(=O)NC1=O)C2=O (centres unmarked) [lenalidomide, Lenalidomide]
Papp (A-B) (10^-6, cm/s) (FIG. 22C): 1.22 10^-6, cm/s
Papp (B-A) (10^-6, cm/s) (FIG. 22C): 4.41 10^-6, cm/s

Compound: Nc1cccc2c1C(=O)N(C1CCC(=O)NC1=O)C2=O (centres unmarked) [pomalidomide, Pomalidomide, reference compound]
degradation of IKZF1 (global proteomics) (IKZF1 [1]): selective degradation of the substrate IKZF1
degradation of IKZF1 (Western blot) (IKZF1 [7]): degraded

in vitro ubiquitylation of tagged GFP by CRL4^CRBN complex (CRL4^CRBN complex): no modification
Compound: GFP-FN: "GFPs tagged with uncyclized glutamine and asparagine, GFP-FQ and GFP-FN" (TGGSLPETFN; not fully specified (N-terminus))

in vitro ubiquitylation of tagged GFP by CRL4^CRBN complex (CRL4^CRBN complex): no modification
Compound: GFP-FQ: "GFPs tagged with uncyclized glutamine and asparagine, GFP-FQ and GFP-FN" (TGGSLPETFQ; not fully specified (N-terminus))
